# Data from the supplement of paper PMC11208160.
# Experiment: recombinant barcode read abundance after kanamycin selection (control-corrected) (log10(CPM+1)); higher = more efficient recombination; sequences stand for … in AGTGCAGAGAAAATCGGCCAGTTTTCTCTGCCTGCAGTCCGCATGCCGT…AGATTTATGCAGCGGACTGCCTTTCTCCCAAAGTGATAAACCGGACAGTATCATGGACCGGTTTTCCCGGTAATCCGTATTTGCAAGGTTGGTTTCACT; site = the 11-nt target
# Procedure, shortened: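 Reported as log10(CPM+1), each value stands for recombination efficiency. That efficiency is the averaged, control-corrected counts per million of barcodes found at recombinant junctions. Cells from a pooled E. coli library pairing targets with IS621 bridge RNA target-binding loops were plated twice on chloramphenicol/ampicillin LB agar (control) and twice on chloramphenicol/ampicillin/kanamycin with 0.1 mM IPTG.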
# 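Also: IS621 recombinase and bridge RNA in Escherichia coli cells.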
row,Sequence,recombinant barcode read abundance (log10)
1,CAATGGGCTTGGGTTCTAACCTGTTGCCG (site CGATGGACTCG),0.179
2,CAATGGTCTTGGGTTCTAACCTGTTGCCT (site CAATGGTCTAA),0.376
3,CAATGGTCTTGGGTTCTAACCTGTTGCCT (site CAATGGTCTAC),0.0107
4,CAATGGTCTTGGGTTCTAACCTGTTGCCT (site CAATGGTCTAG),1.54
5,CAATGGTCTTGGGTTCTAACCTGTTGCCT (site CAATGGTCTAT),0.939
6,CAATGGTCTTGGGTTCTAACCTGTTGCGT (site CAATGGTCTAA),0.583
7,CAATGGTCTTGGGTTCTAACCTGTTGCGT (site CAATGGTCTAC),3.06
8,CAATGGTCTTGGGTTCTAACCTGTTGCGT (site CAATGGTCTAG),0.638
9,CAATGGTCTTGGGTTCTAACCTGTTGCGT (site CAATGGTCTAT),2.16
10,CACAATCCTTGGGTTCTAACCTGTTGCGT (site CACAATCCTAC),1.76
11,CACAATCCTTGGGTTCTAACCTGTTGCGT (site CACACACCTAC),0.0965
12,CACACGACTTGGGTTCTAACCTGTTGCCT (site CACACGACTAG),0.99
13,CACACGACTTGGGTTCTAACCTGTTGCCT (site CACACGTCTAG),0.109
14,CACACGTCTTGGGTTCTAACCTGTTGCCT (site CACACGACTAG),0.103
15,CACACGTCTTGGGTTCTAACCTGTTGCCT (site CACACGTCTAG),1.24
16,CACACTACTTGGGTTCTAACCTGTTGCTG (site CACACTACTCA),0.818
17,CACACTACTTGGGTTCTAACCTGTTGCTG (site GGTGAGCCTAC),0.24
18,CACAGACCTTGGGTTCTAACCTGTTGCCT (site AACAGACCTAG),0.00929
19,CACAGACCTTGGGTTCTAACCTGTTGCCT (site CACAGACCTAG),1.47
20,CACAGACCTTGGGTTCTAACCTGTTGCCT (site GACAGACCTAG),0.205
21,CACAGACCTTGGGTTCTAACCTGTTGCCT (site TACAGACCTAG),0.251
22,CACAGATCTTGGGTTCTAACCTGTTGCTT (site CAAAGATCTAA),0.14

row,Sequence,recombinant barcode read abundance (log10)
1,CACAGATCTTGGGTTCTAACCTGTTGCTT (site CACAGATCTAA),0.351
2,CACAGATCTTGGGTTCTAACCTGTTGCTT (site CAGAGATCTAA),0.122
3,CACAGATCTTGGGTTCTAACCTGTTGCTT (site CATAGATCTAA),0.0763
4,CACAGTACTTGGGTTCTAACCTGTTGCCT (site AACAGTACTAG),0.0407
5,CACAGTACTTGGGTTCTAACCTGTTGCCT (site CACAGTACTAG),0.901
6,CACAGTACTTGGGTTCTAACCTGTTGCCT (site GACAGTACTAG),0.29
7,CACAGTACTTGGGTTCTAACCTGTTGCCT (site TACAGTACTAG),0.0394
8,CACAGTCCTTGGGTTCTAACCTGTTGCTA (site AGGGTCGCTAG),0.049
9,CACAGTCCTTGGGTTCTAACCTGTTGCTA (site CACAGTCCTTA),0.966
10,CACCAAACTTGGGTTCTAACCTGTTGCCT (site CACCAAACTAG),0.299
11,CACCAAACTTGGGTTCTAACCTGTTGCCT (site CACCAACCTAG),0.0986
12,CACCACCCTTGGGTTCTAACCTGTTGCGG (site CACCACCCTCC),1.35
13,CACCACCCTTGGGTTCTAACCTGTTGCGG (site GGTACTTCTAA),0.358
14,CACCGAGCTTGGGTTCTAACCTGTTGCCG (site CAACGAGCTCG),0.223
15,CACCGAGCTTGGGTTCTAACCTGTTGCCG (site CACCGAGCTCG),0.577
16,CACCGAGCTTGGGTTCTAACCTGTTGCCG (site CAGCGAGCTCG),0.534
17,CACCGAGCTTGGGTTCTAACCTGTTGCCG (site CATCGAGCTCG),0.145
18,CACGAGCCTTGGGTTCTAACCTGTTGCCT (site CACGAGACTAG),0.149
19,CACGAGCCTTGGGTTCTAACCTGTTGCCT (site CACGAGCCTAG),2.24
20,CACGAGCCTTGGGTTCTAACCTGTTGCCT (site CACGAGGCTAG),0.0367
21,CACGAGCCTTGGGTTCTAACCTGTTGCCT (site CACGAGTCTAG),1.63
22,CACGCATCTTGGGTTCTAACCTGTTGCCT (site CACCAATCTAG),0.211

row,Sequence,recombinant barcode read abundance (log10)
1,CACGCATCTTGGGTTCTAACCTGTTGCCT (site CACGCATCTAG),0.822
2,CACGGAACTTGGGTTCTAACCTGTTGCCT (site CACGGAACTAG),1.82
3,CACGGAACTTGGGTTCTAACCTGTTGCCT (site CACGTTACTAG),0.59
4,CACGGGCCTTGGGTTCTAACCTGTTGCCT (site CACGGGCCTAG),0.466
5,CACGGGCCTTGGGTTCTAACCTGTTGCCT (site GACAGGCCTAG),0.0551
6,CACTAGACTTGGGTTCTAACCTGTTGCCG (site CACTAGACTCG),1.37
7,CACTAGACTTGGGTTCTAACCTGTTGCCG (site GTGACTGCTAC),0.242
8,CACTCCTCTTGGGTTCTAACCTGTTGCTT (site CACTCCTCTAA),0.0523
9,CACTCCTCTTGGGTTCTAACCTGTTGCTT (site CTCTGCTCTAA),0.0209
10,CACTGAGCTTGGGTTCTAACCTGTTGCCT (site CACTGAGCTAG),0.845
11,CACTGAGCTTGGGTTCTAACCTGTTGCCT (site TACTGAGCTAG),0.229
12,CACTGATCTTGGGTTCTAACCTGTTGCCT (site CACTGATCTAG),1.28
13,CACTGATCTTGGGTTCTAACCTGTTGCCT (site CACTGCTCTAG),0.0175
14,CACTGATCTTGGGTTCTAACCTGTTGCCT (site CACTGGTCTAG),0.281
15,CACTGATCTTGGGTTCTAACCTGTTGCCT (site CACTGTTCTAG),0.302
16,CACTTTGCTTGGGTTCTAACCTGTTGCCT (site AGGGAGACTGA),0.145
17,CACTTTGCTTGGGTTCTAACCTGTTGCCT (site CACTTTGCTAG),0.207
18,CAGAATCCTTGGGTTCTAACCTGTTGCGG (site CAGAATCCTCC),1.73
19,CAGAATCCTTGGGTTCTAACCTGTTGCGG (site TCTCTCGCTAG),0.0949
20,CAGACGACTTGGGTTCTAACCTGTTGCCA (site CAGACGACTTG),0.37
21,CAGACGACTTGGGTTCTAACCTGTTGCCA (site TGCTGTCCTAA),0.0664
22,CAGAGATCTTGGGTTCTAACCTGTTGCTT (site CAAAGATCTAA),0.328

row,Sequence,recombinant barcode read abundance (log10)
1,CAGAGATCTTGGGTTCTAACCTGTTGCTT (site CACAGATCTAA),0.137
2,CAGAGATCTTGGGTTCTAACCTGTTGCTT (site CAGAGATCTAA),1.33
3,CAGAGATCTTGGGTTCTAACCTGTTGCTT (site CATAGATCTAA),0.104
4,CAGAGCTCTTGGGTTCTAACCTGTTGCCG (site AGACAGACTAC),0.078
5,CAGAGCTCTTGGGTTCTAACCTGTTGCCG (site CAGAGCTCTCG),2.05
6,CAGAGTCCTTGGGTTCTAACCTGTTGCAT (site CAGAGTCCTAG),0.852
7,CAGAGTCCTTGGGTTCTAACCTGTTGCAT (site CAGAGTCCTAT),1.88
8,CAGATTCCTTGGGTTCTAACCTGTTGCCT (site CAGATTCCTAG),0.542
9,CAGATTCCTTGGGTTCTAACCTGTTGCCT (site GAGATTCCTAG),0.222
10,CAGCCACCTTGGGTTCTAACCTGTTGCCT (site AAGCCACCTAG),0.0775
11,CAGCCACCTTGGGTTCTAACCTGTTGCCT (site CAGCCACCTAG),1.4
12,CAGCCACCTTGGGTTCTAACCTGTTGCCT (site GAGCCACCTAG),0.0262
13,CAGCCACCTTGGGTTCTAACCTGTTGCCT (site TAGCCACCTAG),0
14,CAGCGGTCTTGGGTTCTAACCTGTTGCGA (site CAGCGGTCTTC),1.65
15,CAGCGGTCTTGGGTTCTAACCTGTTGCGA (site TTATACACTCT),0.0232
16,CAGCTAACTTGGGTTCTAACCTGTTGCCT (site CAAATAACTAG),0.0162
17,CAGCTAACTTGGGTTCTAACCTGTTGCCT (site CAGCTAACTAG),1.54
18,CAGGCGCCTTGGGTTCTAACCTGTTGCCT (site CAGGCGACTAG),0.335
19,CAGGCGCCTTGGGTTCTAACCTGTTGCCT (site CAGGCGCCTAG),0.979
20,CAGGCGCCTTGGGTTCTAACCTGTTGCCT (site CAGGCGGCTAG),0.178
